Experimental data reported in ChEMBL document CHEMBL3351913, “Malonate-based inhibitors of mammalian serine racemase: kinetic characterization and structure-based computational study” (Eur J Med Chem, 2015).

The molecules below were run against T1, Serine racemase (Mus musculus, UniProt Q9QZX7) (assay: Inhibition of mouse serine racemase using L-serine substrate by reversed-phase HPLC analysis).
T1 sequence (Q9QZX7 whole entry): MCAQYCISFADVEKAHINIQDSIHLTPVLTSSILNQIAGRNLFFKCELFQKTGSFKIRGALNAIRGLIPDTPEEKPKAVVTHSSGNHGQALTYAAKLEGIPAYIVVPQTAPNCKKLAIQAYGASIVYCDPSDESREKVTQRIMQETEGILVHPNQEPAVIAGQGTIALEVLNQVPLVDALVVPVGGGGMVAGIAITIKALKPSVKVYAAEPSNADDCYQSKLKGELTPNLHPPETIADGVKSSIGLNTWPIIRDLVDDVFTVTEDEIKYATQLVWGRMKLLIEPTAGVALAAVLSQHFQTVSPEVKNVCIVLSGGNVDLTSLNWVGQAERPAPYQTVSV
O=C(O)C(O)C(=O)O showed an IC50 of 94 µM.
NC(C(=O)O)C(=O)O was tested, and the IC50 was 400 µM.
With O=C(O)C(Cl)(Cl)C(=O)O the IC50 was 57 µM.
In the case of O=C(O)C(Cl)C(=O)O, the IC50 is reported as 780 µM.
O=C(O)C(F)(F)C(=O)O showed an IC50 of 2160 µM.
CC(C)(C(=O)O)C(=O)O showed an IC50 of 5630 µM.
Work on O=C(O)C(C(=O)O)c1ccsc1 yielded an IC50 of 7030 µM.
Molecule O=C(O)C(CO)(CO)C(=O)O has an IC50 of 40600 µM.
O=C(O)CC(=O)O [MALONIC ACID] showed an IC50 of 67 µM.
For CC(C(=O)O)C(=O)O [METHYLMALONIC ACID], the IC50 was 1850 µM.

The molecules below were run against T1, Serine racemase (assay: Inhibition of mouse serine racemase by Lineweaver-Burk plot).
Molecule O=C(O)C(Cl)(Cl)C(=O)O has a Ki of 19 µM.
With O=C(O)CC(=O)O [MALONIC ACID] the Ki was 27 µM.
